In patent publication US4560509A, “Antibiotic A39079 factor S-1” (Eli Lilly and Company, priority 1983, dated 1985):
In brackets after ≈: the same amount, converted by molar mass.

Tests used:
[1] = test system: Staphylococcus aureus X400; assay: standard agar-dilution MIC assay; format: cell-based; details: agar dilution; Staphylococcus aureus X400; read-out: MIC
Description: (§1) Table V summarizes the minimal inhibitory concentrations (MIC) at which factor S-1 inhibits certain organisms as determined by standard agar-dilution assays. In Table V, the activity of factor S-1 is compared with that of rifampin.

[2] = test system: Acinetobacter calcoaceticus AC12; assay: standard agar-dilution MIC assay; format: cell-based
Description: as §1

[3] = test system: Proteus morganii PR15; assay: standard agar-dilution MIC assay; format: cell-based; details: Morganella morganii; agar dilution; Proteus morganii PR15; read-out: MIC
Description: as §1

[4] = test system: Klebsiella pneumoniae X68; assay: standard agar-dilution MIC assay; format: cell-based; details: agar dilution; Klebsiella pneumoniae X68; read-out: MIC
Description: as §1

[5] = test system: Serratia marcescens X99; assay: standard agar-dilution MIC assay; format: cell-based; details: agar dilution; Serratia marcescens X99; read-out: MIC
Description: as §1

[6] = test system: Klebsiella pneumoniae X26; assay: standard agar-dilution MIC assay; format: cell-based; details: agar dilution; Klebsiella pneumoniae X26; read-out: MIC
Description: as §1

[7] = test system: Staphylococcus epidermidis EPI1; assay: standard agar-dilution MIC assay; format: cell-based
Description: as §1

[8] = test system: Serratia marcescens SE3; assay: standard agar-dilution MIC assay; format: cell-based; details: agar dilution; Serratia marcescens SE3; read-out: MIC
Description: as §1

[9] = test system: Escherichia coli TEM; assay: standard agar-dilution MIC assay; format: cell-based
Description: as §1

[10] = test system: Streptococcus pneumoniae Park 1; assay: standard agar-dilution MIC assay; format: cell-based; details: PARK1; agar dilution; Streptococcus pneumoniae Park 1; read-out: MIC
Description: as §1

[11] = test system: Streptococcus sp. group D 9960; assay: standard agar-dilution MIC assay; format: cell-based; details: agar dilution; Streptococcus sp. group D 9960; read-out: MIC
Description: as §1

[12] = test system: Proteus rettgeri C24; assay: standard agar-dilution MIC assay; format: cell-based; details: Providencia rettgeri; agar dilution; Proteus rettgeri C24; read-out: MIC
Description: as §1

[13] = test system: Escherichia coli EC14; assay: standard agar-dilution MIC assay; format: cell-based
Description: as §1

[14] = test system: Staphylococcus epidermidis 222; assay: standard agar-dilution MIC assay; format: cell-based; details: agar dilution; Staphylococcus epidermidis 222; read-out: MIC
Description: as §1

[15] = test system: rumen flora; assay: ruminant feed-utilization activity (VFA and methane production in treated vs control flasks); format: cell-based
Description: Animals having a developed rumen function utilize feed by first degrading the carbohydrate (the main nutritive portion) to pyruvate. The pyruvate is further metabolized to volatile fatty acid (VFA) derivatives, which include acetate, propionate and butyrate. It is known that the efficiency of carbohydrate utilization in ruminants is increased by treatments which stimulate the animals' rumen flora to produce propionate compounds rather than acetate or butyrate compounds. Feed-utilization efficiency can also be improved by inhibiting methane production. When methane gas is produced in the rumen, it is generally lost through eructation. This energy loss can be minimized by inhibiting methane formation.

[16] = test system: bacteria normally present in the monogastric digestive system; assay: glucose sparing / feed-utilization efficiency in monogastric animals; details: statement in words
Description: Yet another important property of factor S-1 is its ability to improve feed-utilization efficiency in monogastric animals. Commercially important monograstric animals include chickens and pigs. In addition, young ruminants, especially those still unweaned, function as monogastric animals. In the monogastric animal, bacteria and the host compete for nutrients in the digestive process. Agents which cause the bacteria to use less efficient substrates, leaving more efficient substrates such as glucose for the host animal, increase the feed-utilization efficiency of the host animal.

[17] = test system: pathogenic bacteria; assay: growth inhibition of pathogenic bacteria (general statement); format: cell-based
Description: as §1

[18] = stability in aqueous methanol solutions; format: physicochemical
Description: (7) Stability: Stability studies on factor S-1 in aqueous methanol solutions were run at pH levels of 2,5,7 and 9 and at temperatures of 4° C., 25° C., and 37° C.

[19] = test system: Micrococcus luteus; assay: antibiotic activity of column fractions; format: cell-based
Description: Whole broth (100 L), prepared in a manner similar to that of Example 1, Section B, was filtered using a filter aid (Hyflo Supercel, Johns-ManvilleCorp.). The filtered broth (86 L) is adjusted to pH 2 with 5N hydrochloric acid and then is extracted twice with ethyl acetate (1/2 volumes). The ethyl acetate extracts are concentrated under vacuum to give an oily residue (49 g). This residue is dissolved in methanol and placed on a 10-L Diaion HP-20 column (Mitsubishi Industries). The column is washed with water (500 ml) and eluted with acetonitrile:water (30 L of 3:7 and 50 L of 3:2) and acetonitrile (20 L). Elution is carried out at a rate of 100 ml/min., collecting 4-liter fractions. Fractions are tested for antibiotic activity against Micrococcus luteus, Escherichia coli, and Neurospora crassa.
Factor S-1 is further purified in 200-mg portions by dissolving it in methanol and chromatographing the solution on a 1"×30-cm column packed with Zorbax ODS (12μ) (E. I. duPont). The column is eluted at 10 ml/min with 45% acetonitrile in 0.01% trifluoroacetic acid (400 ml) and then with a 400-ml gradient of from 45%-100% acetonitrile in 0.01% trifluoroacetic acid. Fractions are checked by UV absorption at 264 nm and by disc bioassay against M. luteus. Fractions containing only factor S-1 are combined, concentrated and lyophilized to dryness. […]

Compound: CC(=O)OC1C(C)C(O)C=COC2(C)Oc3c(C)c(O)c4c(c3C2=O)C(=O)C(C)=C(NC(=O)C=CC=CC(C)C(O)C(C)C(O)C1C)C4=O (stereo not shown) [Factor S-1]
- MIC [1]: 0.06 µg/mL (≈ 0.088 µM)
- MIC [2]: 2 µg/mL (≈ 2.93 µM)
- MIC [3]: 8 µg/mL (≈ 11.7 µM)
- MIC [4]: 16 µg/mL (≈ 23.5 µM)
- MIC [5]: 32 µg/mL (≈ 46.9 µM)
- MIC [6]: 32 µg/mL (≈ 46.9 µM)
- MIC [7]: < 0.008 µg/mL
- MIC [8]: 16 µg/mL (≈ 23.5 µM)
- MIC [9]: > 128 µg/mL
- MIC [10]: < 0.008 µg/mL
- MIC [11]: 1 µg/mL (≈ 1.47 µM)
- MIC [12]: 2 µg/mL (≈ 2.93 µM)
- MIC [13]: 16 µg/mL (≈ 23.5 µM)
- MIC [14]: < 0.008 µg/mL
- Ratio of Treated to Control, Molar Percent, acetic ([15]; dose 0.5 ppm): 1.04
- Ratio of Treated to Control, Molar Percent, butyric ([15]; dose 0.5 ppm): 0.57
- Ratio of Treated to Control, Molar Percent, propionic ([15]; dose 0.5 ppm): 1.29
- Ratio of Treated to Control, mMoles/Day, Total VFA ([15]; dose 0.5 ppm): 1.18
- Ratio of Treated to Control, mMoles/Day, acetic ([15]; dose 0.5 ppm): 1.22
- Ratio of Treated to Control, mMoles/Day, butyric ([15]; dose 0.5 ppm): 0.67
- Ratio of Treated to Control, mMoles/Day, methane ([15]; dose 0.5 ppm): 1.03
- Ratio of Treated to Control, mMoles/Day, propionic ([15]; dose 0.5 ppm): 1.52
- Ratio of Treated to Control, Molar Percent, acetic ([15]; dose 1 ppm): 1.05
- Ratio of Treated to Control, Molar Percent, butyric ([15]; dose 1 ppm): 0.48
- Ratio of Treated to Control, Molar Percent, propionic ([15]; dose 1 ppm): 1.49
- Ratio of Treated to Control, mMoles/Day, Total VFA ([15]; dose 1 ppm): 1.22
- Ratio of Treated to Control, mMoles/Day, acetic ([15]; dose 1 ppm): 1.27
- Ratio of Treated to Control, mMoles/Day, butyric ([15]; dose 1 ppm): 0.59
- Ratio of Treated to Control, mMoles/Day, methane ([15]; dose 1 ppm): 0.98
- Ratio of Treated to Control, mMoles/Day, propionic ([15]; dose 1 ppm): 1.75
- Ratio of Treated to Control, Molar Percent, acetic ([15]; dose 2 ppm): 1.08
- Ratio of Treated to Control, Molar Percent, butyric ([15]; dose 2 ppm): 0.43
- Ratio of Treated to Control, Molar Percent, propionic ([15]; dose 2 ppm): 1.55
- Ratio of Treated to Control, mMoles/Day, Total VFA ([15]; dose 2 ppm): 1.06
- Ratio of Treated to Control, mMoles/Day, acetic ([15]; dose 2 ppm): 1.15
- Ratio of Treated to Control, mMoles/Day, butyric ([15]; dose 2 ppm): 0.46
- Ratio of Treated to Control, mMoles/Day, methane ([15]; dose 2 ppm): 1.09
- Ratio of Treated to Control, mMoles/Day, propionic ([15]; dose 2 ppm): 1.63
- Ratio of Treated to Control, Molar Percent, acetic ([15]; dose 5 ppm): 1.07
- Ratio of Treated to Control, Molar Percent, butyric ([15]; dose 5 ppm): 0.62
- Ratio of Treated to Control, Molar Percent, propionic ([15]; dose 5 ppm): 1.30
- Ratio of Treated to Control, mMoles/Day, Total VFA ([15]; dose 5 ppm): 1.07
- Ratio of Treated to Control, mMoles/Day, acetic ([15]; dose 5 ppm): 1.16
- Ratio of Treated to Control, mMoles/Day, butyric ([15]; dose 5 ppm): 0.66
- Ratio of Treated to Control, mMoles/Day, methane ([15]; dose 5 ppm): 0.50
- Ratio of Treated to Control, mMoles/Day, propionic ([15]; dose 5 ppm): 1.39
- feed-utilization efficiency in ruminants ([15]; statement in words): improve feed-utilization efficiency in ruminants
- effect on consumption of glucose by bacteria (glucose sparing) [16]: prevents the consumption of glucose by bacteria normally present in the monogastric digestive system
- inhibition of growth of pathogenic bacteria [17]: inhibits the growth of a broad spectrum of pathogenic bacteria, especially gram-positive bacteria
- stability versus temperature ([18]; 4° C., 25° C. and 37° C.): most stable at 4° C., less stable at 25° C., and least stable at 37 °C
- stability versus pH ([18]; pH 2, 5, 7 and 9): more stable in slightly acidic, neutral and basic solutions than in strongly acidic solutions (pH=2)
- activity against M. luteus [19]: active
